Results published in patent US20170209455A1, “Solid Pharmaceutical Composition Comprising PI3K-Inhibitor” (NOVARTIS AG, priority 2014, published 2017).

Experiments:
Assay type in all cases: physicochemical
[1] = Chemical compatibility of the compound of formula (I) with polymers: melt extrudates analysed by HPLC for total impurity; details: hot melt extrusion
Excerpt: Assay, Degradation Products/Impurities by HPLC
Principle: RP HPLC with UV detection
• Acetonitrile (HPLC grade, e.g. Merck) • Water (e.g. from Milli-Q instrument) • Methanol (Analytical grade, e.g. Sigma-Aldrich or equivalent) • Solvent: Water/acetonitrile 40/60 (v/v)
• Apparatus: e.g. HP 1290 (UPLC) • Column: Waters Acquity BEH C18 (Length 100 mm, internal diameter 2.1 mm or equivalent column and particle size 1.7 μm)
• Mobile Phase: • A: Water/Acetonitrile/TFA (95:5:0.05 v/v/v) • B: Water/Acetonitrile/TFA (5:95:0.05 v/v/v)
Column temperature: 30° C. Auto-sampler temperature: Ambient Needle wash: Methanol/water 80/20 (v/v) Injection volume: • 2 μl of the test and reference solutions, equivalent to about • 0.6 μg of drug substance compound of formula (I) in the reference solution Run time: 18 min […]
The compatibility of the compound of formula (I) with various polymers was tested by preparing melt extrudates according to the manufacturing process as described in example 1 and analyzing the resulting melt extrudates by HPLC to determine the amount of degradation or related products (“impurities”) of the compound of formula (I). […] The amount of total impurities was assessed according to the guideline that the sum of specified and unspecified impurities (herein referred to as total impurity) is preferably not more than (NMT) 0.5%. […]

[2] = Kinetic solubility of melt extrudates (rotating bottle); details: aqueous buffer; melt extrudates equivalent to 100 mg compound of formula (I), pH 6.8 phosphate buffer, rotating bottle 50 rpm, 37° C.
Method: • Principle: Measurement of the amount of drug substance solubilized using rotating bottle apparatus. Determination by HPLC/UV method for sample analysis.
• Speed of rotation: 50 rpm • Test medium: […] • Volume of test medium: 75 mL • Temperature: 37±0.5° C. Sampling Time points 5, 10, 15, 20, 25, 30, 45, 60 minutes
Procedure: The concentration maximum is taken as kinetic solubility value.
(§1) Melt extrudates were prepared according to example 1. The kinetic solubility and the physical state of the compound of formula (I) were determined. […] Kinetic solubility were determined by adding melt extrudates equivalent to 100 mg of the compound of formula (I) in pH 6.8 phosphate buffer using a rotating bottle at 50 rpm and at a temperature of 37° C. The physical state (crystalline or amorphous) was determined by XRPD (discrete peaks indicating some of the material being in a crystalline state, absence of peaks indicating amorphous state).

[3] = Physical state of compound of formula (I) in melt extrudates by XRPD
Method: X-Ray Powder Diffraction (XRPD) Analysis
• Principle: X-ray powder diffraction (XRPD) in reflection geometry • Equipment: Powder diffractomer e.g. type Bruker D8 Discover • Procedure: Place the test substance on the specimen holder. Record the X-ray diffraction pattern between 5° and 40° (2-theta) with Cu Kα radiation (1.5406 Å) in reflection geometry using the following conditions • Detector type: Lynx Eye • High voltage: 40 kV • Current: 40 mA • Scan type: continuous • Step time: 0.3 s • Step size: 0.016° • Soller slit: 2.5° • Slits: 0.6 mm • Method: A part of the sample is used without preparation for the measurement. […] Record the X-ray diffraction pattern between 5° and 40° (2Theta) with CuKα radiation. • Evaluation: Observe the recorded diffractogram and report any detectable diffraction peak. […]
as §1

## C[C@H]1OC(=O)N(c2cc(-c3cnc(N)nc3C(F)(F)F)nc(N3CCOCC3)n2)[C@H]1CO [compound of formula (I), (4S,5R)-3-(2′-Amino-2-morpholin-4-yl-4′-trifluoromethyl-[4,5]bipyrimidinyl-6-yl)-4-hydroxymethyl-5-methyl-oxazolidin-2-one]
[1]
  processing temperature leading to degradation of compound of formula (I): exceeding 205 °C
[2]
  solubility kinetic: ~0.04 mg/mL
[3]
  Physical state of compound of formula (I) (XRPD): Crystalline
